According to paper PMC4014698 (Pharmaceuticals, 2014):
Non-standard residues stand in square brackets, D forms with d. Residues, ends and D or L forms follow the SMILES beside them.

What was measured:
[1] = system: human erythrocytes; experiment: Hemolytic activity (HC50); type: cell-based; settings: 18 hours at 37 °C; human red blood cells; Figure 8, 100% control 0.1% Triton-X 100
Procedure: Hemoglobin release was determined spectrophotometrically at 570 nm.
From these plots, the HC50 values, the peptide concentration that produces 50% hemolysis of human red blood cells after 18 hours in the standard microtiter dilution method was determined.

[2] = system: human erythrocytes; experiment: Hemolytic activity (HC50); type: cell-based; settings: 1 hour incubation at 37 °C; human red blood cells; Figure 8, 100% control 0.1% Triton-X 100

CC[C@@H](C)[C@@H](NC(=O)[C@H]1CCCN1C(=O)[C@@H](CCCNC(=N)N)NC(=O)[C@@H](Cc1ccccc1)NC(=O)[C@H](NC(=O)[C@@H](Cc1c[nH]cn1)NC(=O)[C@@H](Cc1c[nH]cn1)NC(=O)[C@@H](Cc1ccccc1)NC(=O)[C@H](N)Cc1ccccc1)[C@H](C)CC)C(=O)N[C@@H](C(=O)N[C@H](Cc1c[nH]cn1)C(=O)N[C@@H](C(=O)NCC(=O)N[C@H](CCCCN)C(=O)N[C@@H](C(=O)N[C@@H](C(=O)N[C@H](Cc1c[nH]cn1)C(=O)N[C@H](CCCNC(=N)N)C(=O)N[C@H](CC(C)C)C(=O)N[C@@H](C(=O)N[C@@H](C(=O)NCC(N)=O)[C@H](C)O)C(C)C)[C@H](C)CC)[C@H](C)O)C(C)C)C(C)C [D-Piscidin 1 G8P] (H-[dF][dF][dH][dH][dI][dF][dR][dP][dI][dV][dH][dV]G[dK][dT][dI][dH][dR][dL][dV][dT]G-NH2)
Hemolytic activity HC50, 18 hours (Figure 8 comparison) [1]: 8 µM | Hemolytic activity HC50, 1 hour [2]: 55 µM
